# Entries after “also recorded” stand apart in the source; their conditions may differ.
# How the values were obtained:
# [1] = Stable metal competition assay, HgCl2; format: physicochemical; details: tenfold excess HgCl2
# Experimental: (§1) To the [^197m/gHg][Hg(Tetrathiol)]^2− (prepared as described above) or radiolabeling controls (DMSO instead of the ligand) 10 µL of a 10 mM metal cocktail (solution of biologically relevant metals, ZnCl2, FeCl3, CuCl2, MgCl2 and CoCl2), 10 mM AuCl3 or 10 mM of HgCl2, in water was added. The final solution contained tenfold excess of stable metal to the chelators and 10^6-fold excess of the stable metal to ^197m/gHg in solution. The mixtures were incubated at RT over 113 h. The proportion of intact radiolabeled complex was monitored over the course of 113 h using iTLC-SG and DMSA solution (50 mM, pH 5) as the mobile phase. Under these conditions, uncomplexed ^197m/gHg^2+ resulting from stable metal transchelation traveled to the solvent front (Rf = 1) while intact [^197m/gHg][Hg(Tetrathiol)]^2− remained at the baseline (Rf = 0).
# [2] = Human serum stability assay (SDS-PAGE); format: in vitro ADME; details: 37 °C, 72 h
# Experimental: To the [^197m/gHg][Hg(Tetrathiol)]^2− (prepared as described above) or radiolabeling controls (DMSO instead of the ligand) was diluted in human serum (1:1 v/v dilution), and the solutions were incubated at 37 °C over 72 h. The metal-complex stabilities were monitored over 72 h using SDS-PAGE following our previously reported protocols (Randhawa et al. [2023]; Tosato et al. [2024]). At each time point, an aliquot (10 μL) of the reaction mixture was mixed with Laemmli sample buffer (10 μL) and was directly loaded onto the SDS-PAGE gel. The SDS-PAGE was run at ambient temperature and 150 V until the dye front reached the resolving gel (1 h). Following electrophoresis, the gel was scanned with the radio-TLC scanner to determine the percentage of intact complex. The same protocol was used with free [^197m/gHg]Hg^2+ and the ^197m/gHg^2+-complexes diluted in phosphate-buffered saline (PBS) (5 µL; 1:1 v/v dilution) to assess their electrophoretic mobility.
# [3] = L-Glutathione (GSH) competition assay; format: physicochemical; details: 37 °C, 72 h, 2.12 mM GSH
# Experimental: GSH competition assay procedures closely followed those previously developed by our group (Randhawa et al. [2023]). To the [^197m/gHg][Hg(Tetrathiol)]^2− (prepared as described above) or radiolabeling controls (DMSO instead of the ligand) was added to a 50 mM L-glutathione (GSH) solution (1:22 v/v GSH:reaction solution dilution), and the mixtures were incubated at 37 °C over 72 h. The final GSH concentration was chosen to mimic in vivo conditions within cells (2.12 mM) (Dickinson and Forman [2002]). The proportion of intact radiolabeled complex was monitored over the course of 72 h using iTLC-SG and L-glutathione (50 mM) as the mobile phase. Under these conditions, uncomplexed ^197m/gHg^2+ resulting from GSH transchelation traveled to the solvent front (Rf = 1) while intact [^197m/gHg][Hg(Tetrathiol)]^2− remained at the baseline (Rf = 0).
# In vivo SPECT/CT imaging = experiment: In vivo SPECT/CT imaging; design: species or system healthy male C57BL/6 mice; details: for organs of tracer accumulation (qualitative): 0-2 h post injection
# Experimental: For animal injection, the tracer was prepared at high molar activity. Radiolabeling of H4Tetrathiol (10^–2 M in DMSO; 40 μL for imaging, 20 μL for bioD) (or DMSO, for [^197m/gHg]HgCl2 mice) with [^197m/gHg]HgCl2 (imaging: 26.7 MBq total m + g, 62 μL; bioD: 13.04 MBq total m + g, 31 μL) was performed in a mixture of ammonium acetate buffer (1 M; pH 7; 198 μL for imaging or 149 μL for bioD) and 6 M NaOH (72 μL or 38 μL required to achieve a pH of 7.5 after addition of activity, for imaging or BioD labeling, respectively). The reaction was allowed to stand for 1 h at 37 °C and quantitative (> 99%) non-isolated percentage radiochemical yield (%RCY) was confirmed via the iTLC methods mentioned above. Further, 100 µL of the reaction was diluted with 50 µL of PBS Tween-20 (0.01 M sodium phosphate, 0.15 M NaCl, 0.05% Tween-20) for imaging mice, or 50 µL of the reaction was diluted with 100 µL of PBS Tween-20 for BioD mice. The tracers were prepared immediately before injection to avoid radiolysis and minimize the tracer loss to any surfaces due to its lipophilicity. The injected doses of each isomer, ^197mHg and ^197gHg, were quantified by measuring an aliquot of known volume of each tracer preparation via HPGe gamma spectroscopy and decay corrected for time of injection using the Eqs. (1) and (2).
# The study was conducted in compliance with the guidelines set by the Canadian Council on Animal Care (CCAC) and approved by the Animal Care Committee (ACC) at the University of British Columbia (A20-0132). A total of eight healthy male C57BL/6 mice weighing approximately 30 g for group 1 and 25 g for group 2 were used in the study. The mice were divided into two experimental groups: group 1 (n = 4) received free [^197m/gHg]HgCl2, while group 2 (n = 4) received [^197m/gHg]Hg-Tetrathiol. Within each group, one mouse was allocated for imaging, while the rest were designated for ex vivo biodistribution analysis. For SPECT imaging, the designated mice were anesthetized using isoflurane via a precision vaporizer. […] Once anesthetized, each imaging mouse received an intravenous (IV) injection via the lateral tail vein of 150 μL of [^197m/gHg]HgCl2 (0.492 MBq ^197mHg + 3.171 MBq ^197gHg) or [^197m/gHg]Hg-Tetrathiol (0.899 MBq ^197mHg + 4.230 MBq ^197gHg) in PBS Tween-20 (0.01 M Na Phosphate, 0.15 M NaCl, 0.05% Tween-20).
# The animals were immediately placed in the scanner and whole-body scans were acquired dynamically during 120 min post-injection (6 frames × 20 min/frame). Throughout the entire scanning procedure, mice were kept under isoflurane anesthesia and body temperature was maintained constant using a heated imaging bed. […] These energy window settings yielded the optimum, and most robust quantification results based on the phantom experiments (vide supra). […]
# [4] = Stable metal competition assay, AuCl3; format: physicochemical; details: tenfold excess to chelator, 113 h, ambient temperature
# Experimental: as §1
# [5] = Stable metal competition assay, biologically relevant metal cocktail; format: physicochemical; details: tenfold excess to chelator, 113 h, ambient temperature
# Experimental: as §1
Structure (SMILES),intact complex in competition with HgCl2 ([1]; 113 h),intact complex in competition with HgCl2 ([1]; within 2 h),intact complex in human serum [2],stability when challenged against GSH [3],organs of tracer accumulation (qualitative) (In vivo SPECT/CT imaging),organs of tracer accumulation (qualitative) (In vivo SPECT/CT imaging; listed as [^197m/gHg]Hg-tetrathiol),blood clearance and excretion (qualitative) (In vivo SPECT/CT imaging; compared with [197m/gHg]HgCl2),demetallation against AuCl3 [4],demetallation against mixture of biologically relevant metals [5]
O=C(CC[S-])OCC(COC(=O)CC[S-])(COC(=O)CC[S-])COC(=O)CC[S-].[Hg+2] [[^197m/gHg]Hg-Tetrathiol],18 ± 10%,71 ± 10%,86 ± 1%,no evidence of decomposition or transchelation,predominantly accumulates in the spleen and liver,tracer accumulation primarily in the liver and spleen,faster blood clearance and excretion through the reticuloendothelial system (RES),no signs of demetallation,no signs of demetallation
[Cl][Hg][Cl] [[^197m/gHg]HgCl2],–,–,–,–,primarily accumulating in the kidneys; also recorded: strong affinity for the kidneys,–,–,–,–
